# How the values were obtained:
# [1] = test system: organotypic cultures of human ovarian cancer cell lines and primary cultures; assay: Ovarian carcinoma organotypic cultures (TUNEL, histology); format: cell-based
# Protocol: FIG. 17. Retinoid effects on ovarian carcinoma organotypic cultures. Organotypic cultures of OVCAR-3 (A, B, E, F, I and J), Caov-3 (C and G), SK-OV-3 (D and H), and O2 (K and L) were grown in the absence (−, top row and K) or presence (+, middle row and I, J and L) of retinoid HetA4 at a concentration of 1 μM in the media. All sections were stained with H&E except for […], which was stained with PAS to detect glycoproteins and glandular differentiation, and J, which was stained with the TUNEL assay to detect apoptosis. All magnifications are 40×.
# To test our hypotheses, we evaluated the effects of clinically achievable concentrations of 4-HPR and Flex-Hets on growth, differentiation and apoptosis in ovarian tissue. A series of compounds with a variety of receptor activation profiles were evaluated. In order to evaluate therapeutic effects, we developed an organotypic culture model of ovarian tumors by growing established cell lines and primary cultures inside collagen gels. Monolayer cultures of cells are not accurate representations of in vivo tissue because they lack the types of interactions that cells have with other cells and with the extracellular matrix in vivo. These interactions are known to influence gene expression and thus the constitution and behavior of cells. In our organotypic model, the growth of tumor cells inside the collagen allows a representation of tumors that have invaded stromal tissue. In the presence of fibroblasts, established cell lines and primary cultures of ovarian cancer formed colonies inside the collagen, while normal or benign ovarian epithelial cells remained as single cells inside the collagen. Human ovarian cancer cell lines (OVCAR-3, Caov-3, SK-OV-3, A2780, UCI 101) and primary human cultures (borderline ovarian tumor (O1), serous papillary tumor (O2), benign ovarian cyst (O3)) were cultured inside and on top of a collagen gel seeded with 3T3 fibroblasts for one week. After further incubation in the presence or absence of 1 μM retinoid (media concentration) for 3, 7 or 14 days, cultures were fixed and sectioned for immunohistochemical analysis.
# The TUNEL assay was used to evaluate apoptosis in fixed, paraffin embedded, cut sections of the treated and control cultures (FIG. 17). […] These two cellular outcomes appeared to be mutually exclusive.
# [2] = test system: OVCAR-3 xenograft tumors; assay: OVCAR-3 xenograft tumor growth model; format: in vivo, mouse; conditions: 10 mg/kg/day by gavage, 5 days per week, 4 weeks
# Protocol: Groups of 5 mice bearing OVCAR-3 xenografted tumors were gavaged daily with the indicated drugs in sesame oil (▪ closed square) or with sesame oil alone (∘ open circle). Tumor volumes were measured in 3 dimensions with calipers weekly. Each data point represents the average and standard error of the tumor volumes on the indicated treatment day relative to the tumor volume on day zero. Nu/nu mice were injected subcutaneously with one million OVCAR-3 cells and arbitrarily divided into five groups of six mice each. After three weeks of tumor growth, the animals were gavaged with sesame oil, 10 mg/kg/day 4-HPR, or the indicated Het five times per week for four weeks and the tumors were measured once per week. The tumor sizes were averaged and divided by the average size for each group on the day that treatment was initiated (day 0).
# The OVCAR-3 cultures were maintained in RPMI media supplemented with 10% fetal bovine serum. All animal experimentation described in this manuscript was conducted in accord with accepted standards of humane animal care. Twenty-five female NU/NU CD-1 female mice (Charles Rivers Laboratories) were housed in a laminar flow room under sterile conditions at 83-85° F. The mice were quarantined for one week prior to the beginning of the study and were allowed access to autoclaved food (Purina 5001 mouse/rat sterilizable diet, St. Louis, Mo.) and water ad libitum. OVCAR-3 cells in log phase growth were harvested by trypsinization, resuspended in RPMI culture medium, and centrifuged at 3,000 rpm for 10 min. The pellets were resuspended in RPMI culture medium at a concentration of 7×10^6 cells/ml before implantation into mice. Animals were injected with 3.5×10^6 cells into the right scapular region with a 24-gauge needle/1 cc tuberculin syringe. Twenty-four hours after tumor implantation, animals were randomized into 5 groups of 5 animals each.
# The Hets SHet50, SHetA2 and SHetA4 were synthesized and their receptor specificity determined as previously described (17,19). The 4-HPR compound was a gift from R.W. Johnson Pharmaceutical Research Institute, Raritan, N.J. All retinoids were dissolved in super refined sesame oil (Croda, Inc., Parsippany, N.J.) and stored at −80° C. Since the retinoids are light sensitive, all manipulations involving retinoids were performed under subdued lighting. […] Tumors were measured with calipers weekly, and tumor volumes were calculated using the formula: volume=length×width×height. Tumor growth was determined by the dividing the volume of the tumor at each weekly measurement by the volume on the first day of treatment. Animal weights and clinical signs of overall health status and cutaneous toxicities were recorded weekly.
smiles,measurement,setting,value
CC1(C)CC(C)(C)c2cc(NC(=S)Nc3ccc([N+](=O)[O-])cc3)ccc2S1 [SHetA2],Induction of apoptosis (TUNEL) in organotypic cultures,[1]; 1 μM retinoid in media,Apoptosis was induced
same,Level of apoptosis relative to the other retinoids (TUNEL),[1]; 1 μM retinoid in media,highest level of apoptosis
same,"Rank as regulator of growth, differentiation and apoptosis among eleven retinoids","[1]; 1 μM, 3, 7 or 14 days","most potent regulator of growth, differentiation and apoptosis"
same,Growth of xenograft tumors versus sesame oil control,[2],significantly inhibited the growth
